Measurements as given in PMC4074815, “An Impermeant Ganetespib Analog Inhibits Extracellular Hsp90-Mediated Cancer Cell Migration that Involves Lysyl Oxidase 2-like Protein” (Cancers, 2014).
pIC50: −log10 of the molar value.

Target: T1, Hsp90 alpha (Homo sapiens, UniProt P07900)
T1 construct: gene HSP90AA1; Hsp90alpha recombinant enzyme (BPS Bioscience Hsp90α assay kit, Cat #50294)
Assay: fluorescence polarization competition with FITC-labeled geldanamycin
Assay type: binding

pIC50: 7.21
SMILES: CC(C)c1cc(-c2nnc(O)n2-c2ccc3c(ccn3CCNC(=O)CCCC[C@@H]3SC[C@@H]4NC(=O)N[C@@H]43)c2)c(O)cc1O [STA-12-7191]
